Test systems include CAKI-1 renal; CCRF-CEM leukemia; DU-145 prostate; HCT-15 colon; MDA-MB-435; NCI-H522 lung; RPMI-8226 leukemia; SK-MEL-28 melanoma; SN12C renal; SW-620 colon.
What all share (assay): NCI tumour cell line growth inhibition, 48 h

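Interpolation was linear, between the two tested concentrations surrounding the appropriate level; five concentrations were tested over 48 hours in 96-well plates. Abbreviation: GI50, concentration required for 50% inhibition of growth. TGI denotes the concentration required for complete inhibition of growth.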

On to `CC(=O)/C(=C/c1ccccc1)C(=O)CC(C)C`, for which the GI50 with CAKI-1 renal is 7.56 µM; in the experiment with CCRF-CEM leukemia, 3.96 µM; in the experiment with DU-145 prostate, 14.4 µM; in the experiment with HCT-15 colon, 4.69 µM; in the experiment with MDA-MB-435 it was 2.44 µM; with NCI-H522 lung, 9.68 µM. The GI50 with RPMI-8226 leukemia is 4.31 µM; with SK-MEL-28 melanoma, 11.5 µM; in the experiment on SN12C renal, 14.3 µM; with SW-620 colon, 2.14 µM. Further, the TGI in the experiment on CAKI-1 renal is 20.6 µM; in the experiment on CCRF-CEM leukemia, more than 100 µM; in the experiment with DU-145 prostate it was 28 µM; in the experiment with HCT-15 colon, 22.3 µM; in the experiment on MDA-MB-435 it was 7.72 µM; with NCI-H522 lung it was 22 µM. Besides, the TGI came to 98.2 µM in the experiment with RPMI-8226 leukemia, 24.9 µM in the experiment with SK-MEL-28 melanoma, 39 µM in the experiment with SN12C renal and 4.63 µM in the experiment on SW-620 colon.
As for `Oc1ccc(Nc2ccc3ccccc3c2)cc1`, the GI50 with CAKI-1 renal was 1.52 µM; with CCRF-CEM leukemia, 7.69 µM; in the experiment on DU-145 prostate it was 4.87 µM; with HCT-15 colon it was 3.96 µM; in the experiment with MDA-MB-435, 3.27 µM; with NCI-H522 lung, 8.99 µM. The GI50 is 9.61 µM in the experiment with RPMI-8226 leukemia, 14.1 µM in the experiment on SK-MEL-28 melanoma, 10 µM in the experiment on SN12C renal and 5.86 µM with SW-620 colon. For the same molecule, the TGI with CAKI-1 renal was 5.93 µM; in the experiment with CCRF-CEM leukemia, more than 100 µM; in the experiment on DU-145 prostate it was 19.2 µM; in the experiment on HCT-15 colon, 23.5 µM; in the experiment with MDA-MB-435, 14 µM; in the experiment on NCI-H522 lung, 27.7 µM. The TGI in the experiment on RPMI-8226 leukemia was more than 100 µM; with SK-MEL-28 melanoma, more than 100 µM; in the experiment with SN12C renal, more than 100 µM; in the experiment on SW-620 colon it was 19.5 µM.
On to `N#Cc1c(NCc2ccccc2)nc(NCc2ccccc2)c(C#N)c1-c1ccc(O)cc1`, for which the GI50 with CAKI-1 renal was 10.7 µM; with CCRF-CEM leukemia it was 27.4 µM; with DU-145 prostate, 32.4 µM; in the experiment on HCT-15 colon, 29.6 µM; in the experiment on MDA-MB-435, 25.2 µM; in the experiment on NCI-H522 lung, 20.2 µM. Further, the GI50 in the experiment on RPMI-8226 leukemia is 21.9 µM; in the experiment with SK-MEL-28 melanoma it was 66.7 µM; in the experiment on SN12C renal it was 5.99 µM; in the experiment with SW-620 colon it was 36.1 µM. Also, the TGI in the experiment with CAKI-1 renal was 44.8 µM; in the experiment with CCRF-CEM leukemia it was more than 100 µM; in the experiment on DU-145 prostate it was more than 100 µM; in the experiment on HCT-15 colon, more than 100 µM; in the experiment on MDA-MB-435 it was 69.8 µM; in the experiment on NCI-H522 lung it was 75.1 µM. The TGI is more than 100 µM in the experiment on RPMI-8226 leukemia, more than 100 µM in the experiment on SK-MEL-28 melanoma, 53.2 µM with SN12C renal and more than 100 µM in the experiment with SW-620 colon.
In the case of `Cc1c(-c2ccc(C3CCCCC3)cc2)nc2ccc(F)cc2c1C(=O)O`, the GI50 in the experiment with CAKI-1 renal is 0.0815 µM; with CCRF-CEM leukemia, 0.0858 µM; with DU-145 prostate, 0.802 µM; with HCT-15 colon, 0.0196 µM; with MDA-MB-435 it was 0.322 µM; with NCI-H522 lung, 0.766 µM. Further, the GI50 in the experiment on RPMI-8226 leukemia was 0.273 µM; in the experiment with SK-MEL-28 melanoma, 14.5 µM; in the experiment on SN12C renal, 0.546 µM; in the experiment with SW-620 colon, 0.228 µM. Further, the TGI with CAKI-1 renal, in the experiment with CCRF-CEM leukemia, with DU-145 prostate, in the experiment on HCT-15 colon, in the experiment with MDA-MB-435 and with NCI-H522 lung was more than 100 µM in each case. For the same molecule, the TGI with RPMI-8226 leukemia, in the experiment with SK-MEL-28 melanoma, in the experiment on SN12C renal and in the experiment on SW-620 colon was more than 100 µM in each case.
For the molecule `COc1cc2c3cc1Oc1c(OC)c(OC)cc4c1C(=NCC4)Cc1ccc(cc1)Oc1cc(ccc1O)C[C@H]3N(C)CC2`, the TGI in the experiment on CAKI-1 renal was 49.1 µM; in the experiment on CCRF-CEM leukemia it was more than 100 µM; in the experiment on DU-145 prostate, more than 100 µM; in the experiment with HCT-15 colon, 25.9 µM; with MDA-MB-435, 37.3 µM; in the experiment on NCI-H522 lung, 25.3 µM. For the same molecule, the TGI with RPMI-8226 leukemia is 47.5 µM; with SK-MEL-28 melanoma, 30.3 µM; in the experiment with SN12C renal, 75.2 µM; in the experiment with SW-620 colon, 36.7 µM.
For `O=C(CC1(O)C(=O)N(Cc2ccccc2)c2ccc(Cl)cc21)c1ccc(C(=O)NCC2CCC3(CC2)OOC2(CCCCC2)OO3)cc1` (stereo not given), the GI50 was 0.418 µM in the experiment on CAKI-1 renal; 0.274 µM in the experiment on CCRF-CEM leukemia; 0.179 µM in the experiment on DU-145 prostate; 0.573 µM with HCT-15 colon; 0.394 µM in the experiment on MDA-MB-435; 0.169 µM with NCI-H522 lung. Also, the GI50 is 0.462 µM in the experiment on RPMI-8226 leukemia, 8.35 µM in the experiment with SK-MEL-28 melanoma, 0.797 µM in the experiment on SN12C renal and 2.21 µM with SW-620 colon. The TGI turned out to be 0.864 µM in the experiment with CAKI-1 renal; 0.662 µM with CCRF-CEM leukemia; 0.326 µM with DU-145 prostate; 2.43 µM in the experiment on HCT-15 colon; 1.4 µM with MDA-MB-435; 0.373 µM with NCI-H522 lung. Besides, the TGI was 2.18 µM with RPMI-8226 leukemia, more than 100 µM in the experiment on SK-MEL-28 melanoma, 2.38 µM in the experiment on SN12C renal and 5.88 µM in the experiment on SW-620 colon.
Take `CSC(=NC#N)S/C=C/C(=O)c1ccccc1`: the GI50 is 16.6 µM with CAKI-1 renal; 1.77 µM with CCRF-CEM leukemia; 20.6 µM with DU-145 prostate; 34.8 µM in the experiment on HCT-15 colon; 34.7 µM in the experiment with MDA-MB-435; 19.8 µM with NCI-H522 lung. The GI50 with RPMI-8226 leukemia is 12.3 µM; with SK-MEL-28 melanoma, 58 µM; in the experiment with SN12C renal it was 39.4 µM; in the experiment with SW-620 colon, 18 µM. The TGI in the experiment on CAKI-1 renal was 37.2 µM; in the experiment with CCRF-CEM leukemia it was 15 µM; in the experiment with DU-145 prostate, 46.3 µM; in the experiment on HCT-15 colon, more than 100 µM; in the experiment with MDA-MB-435, more than 100 µM; in the experiment with NCI-H522 lung, 47.8 µM. Also, the TGI is 34.7 µM with RPMI-8226 leukemia, more than 100 µM in the experiment with SK-MEL-28 melanoma, more than 100 µM in the experiment with SN12C renal and 43.3 µM with SW-620 colon.
For the molecule `O=C(/C=C/c1ccc(Cl)cc1)c1ccccc(=O)c1O`, the TGI came out at 2.79 µM with CAKI-1 renal; 0.773 µM in the experiment with CCRF-CEM leukemia; 19.1 µM with DU-145 prostate; 6.08 µM with HCT-15 colon; 20.8 µM in the experiment with MDA-MB-435; 50.9 µM in the experiment with NCI-H522 lung. In addition, the TGI in the experiment on RPMI-8226 leukemia is 4.79 µM; in the experiment on SK-MEL-28 melanoma it was 26.4 µM; in the experiment on SN12C renal, 4.58 µM; in the experiment on SW-620 colon it was more than 40 µM.
